Data taken from patent publication US10183950B2, “Thienopyrimidine inhibitors of atypical protein kinase C” (Cancer Research Technology Limited, priority 2011, dated 2019).

Each molecule was assayed against T1, kinase-domain human PKCι (Homo sapiens, UniProt P41743) (assay: PKCι IC50 IMAP fluorescence polarisation assay, kinase-domain enzyme). Settings: kinase domain PKCi at 2 μM ATP; read-out: IC50 in IMAP assay against kinase domain PKCi.
T1 construct: Recombinant, kinase-domain human PKCι is expressed and purified in-house; made in house
T1 sequence (P41743 254-522 limits assumed): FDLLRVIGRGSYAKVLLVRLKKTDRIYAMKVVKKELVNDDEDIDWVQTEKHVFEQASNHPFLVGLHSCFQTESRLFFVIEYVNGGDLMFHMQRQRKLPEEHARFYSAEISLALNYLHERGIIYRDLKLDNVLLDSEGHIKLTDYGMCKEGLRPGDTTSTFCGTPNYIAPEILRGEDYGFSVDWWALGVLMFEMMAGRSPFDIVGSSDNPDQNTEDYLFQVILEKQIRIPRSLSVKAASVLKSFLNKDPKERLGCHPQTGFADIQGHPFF
Type: biochemical
Experimental: Assays are based on the ability of PKCι to phosphorylate a commercially available peptide substrate in vitro. […] Recombinant, full-length human PKCι expressed in Sf21 insect cells is also commercially available. Recombinant, kinase-domain human PKCι is expressed and purified in-house.
The procedure below explains how dose response curves for inhibitors of PKCι are obtained.
Compounds to be tested are dissolved in 100% DMSO. […] 1 μl is plated into 384 well black low-binding flat bottomed assay plates which are used immediately. Dilutions and additions of compound to assay plates are carried out using Matrix WellMate® and Matrix PlateMate® Plus liquid handling systems.
The final concentration of peptide substrate in the assay is 100 nM. […] Relevant controls are included, namely no compound and no enzyme. […] The reaction is allowed to incubate for 60 minutes at room temperature, before the reaction is stopped and developed by the addition of 20 μl IMAP™ development reagent (Molecular Devices). IMAP development reagent consists of 0.25% (v/v) IMAP progressive binding reagent, 17% (v/v) IMAP progressive binding buffer A and 3% (v/v) IMAP progressive binding buffer B. The plates are then incubated for 2 hours at room temperature before being read using an appropriate plate reader, for example a Molecular Devices HT Analyst or a BMG Pherastar.

First: c1cnc2sc3c(N4CCNCC4)nc(-c4ccncc4)nc3c2c1 [compound 376, 4-Piperazin-1-yl-2-pyridin-4-yl-pyrido[3′,2′:4,5]thieno[3,2-d]pyrimidine]
Second: Clc1cccc2sc3c(N4CCCNCC4)nc(-c4ccncc4)nc3c12 [compound 371, 9-Chloro-4-[1,4]diazepan-1-yl-2-pyridin-4-yl-benzo[4,5]thieno[3,2-d]pyrimidine]
The IC50 of the first is higher: 10 to 40 µM for the first, 0.1 to 1 µM for the second.

Compared with `Cc1cc(C)c2c(n1)sc1c(NC[C@H](C)N)nc(-c3ccncc3)nc12` [compound 382, (S)-N*1*-(7,9-Dimethyl-2-pyridin-4-yl-pyrido[3′,2′:4,5]thieno[3,2-d]pyrimidin-4-yl)-propane-1,2-diamine], `C[C@@H](N)CNc1nc(-c2ccncc2)nc2cc(-c3ccccc3)sc12` [compound 366, (R)-N*1*-(6-Phenyl-2-pyridin-4-yl-thieno[3,2-d]pyrimidin-4-yl)-propane-1,2-diamine] is higher in IC50: 0.1 to 1 µM for the first, 10 to 40 µM for the second.

`NCCNc1nc(-c2ccncc2)nc2cc(-c3ccccc3)sc12` [compound 313, N*1*-(6-Phenyl-2-pyridin-4-yl-thieno[3,2-d]pyrimidin-4-yl)-ethane-1,2-diamine] and `C[C@H](N)CNc1nc(-c2ccncc2)nc2cc(-c3ccc(C(C)(C)C)cc3)sc12` [compound 359, (S)-N*1*-[6-(4-tert-Butyl-phenyl)-2-pyridin-4-yl-thieno[3,2-d]pyrimidin-4-yl]-propane-1,2-diamine] fall in the same range of IC50: 10 to 40 µM for the first, 10 to 40 µM for the second.

First: Cc1csc2c(N3CCCNCC3)nc(-c3ccncc3)nc12 [compound 362, 4-[1,4]Diazepan-1-yl-7-methyl-2-pyridin-4-yl-thieno[3,2-d]pyrimidine]
Second: Cc1csc2c(N(C)CCN)nc(-c3ccncc3)nc12 [compound 365, N*1*-Methyl-N*1*-(7-methyl-2-pyridin-4-yl-thieno[3,2-d]pyrimidin-4-yl)-ethane-1,2-diamine]
The IC50 of the first is lower: 0.1 to 1 µM for the first, 1 to 10 µM for the second. The first is the more potent here.

First: N[C@H](CNc1nc(-c2ccncc2)nc2c1sc1cccc(Cl)c12)Cc1ccccc1 [compound 372, (S)-N*1*-(9-Chloro-2-pyridin-4-yl-benzo[4,5]thieno[3,2-d]pyrimidin-4-yl)-3-phenyl-propane-1,2-diamine]
Second: N[C@@H](COc1nc(-c2ccncc2)nc2c1sc1cccc(Cl)c12)Cc1ccccc1 [compound 477, (R)-1-(9-Chloro-2-pyridin-4-yl-benzo[4,5]thieno[3,2-d]pyrimidin-4-yloxymethyl)-2-phenyl-ethylamine]
The IC50 of the first is lower: 0.1 to 1 µM for the first, 10 to 40 µM for the second. The first is the more potent here.

Molecule `C[C@@H](N)CNc1nc(-c2ccncc2)nc2cc(-c3ccc(C(C)(C)C)cc3)sc12` [compound 358, (R)-N*1*-[6-(4-tert-Butyl-phenyl)-2-pyridin-4-yl-thieno[3,2-d]pyrimidin-4-yl]-propane-1,2-diamine] has an IC50 of 10 to 40 µM.

Same assay, conditions: kinase domain PKCi at 2 μM ATP; read-out: IC50 in IMAP assay against kinase domain PKCi (Activity)

First: Brc1ccc(-c2csc3nc(-c4ccncc4)nc(N4CCCNCC4)c23)cc1 [compound 93, 5-(4-Bromo-phenyl)-4-[1,4]diazepan-1-yl-2-pyridin-4-yl-thieno[2,3-d]pyrimidine]
Second: Cc1csc2nc(-c3ccncc3)nc(N3CCCNCC3)c12 [compound 95, 4-[1,4]Diazepan-1-yl-5-methyl-2-pyridin-4-yl-thieno[2,3-d]pyrimidine]
The IC50 of the first is higher: 1 to 10 µM for the first, 0.1 to 1 µM for the second. The second is the more potent here.

Compared with `N[C@@H](COc1nc(-c2ccncc2)nc2sc3c(c12)CCCC3)c1ccccc1` [compound 147, (R)-1-Phenyl-2-(2-pyridin-4-yl-5,6,7,8-tetrahydro-benzo[4,5]thieno[2,3-d]pyrimidin-4-yloxy)-ethylamine], `N[C@H](COc1nc(-c2ccncc2)nc2sc3c(c12)CCCC3)Cc1cccc(F)c1` [compound 163, (S)-1-(3-Fluoro-benzyl)-2-(2-pyridin-4-yl-5,6,7,8-tetrahydro-benzo[4,5]thieno[2,3-d]pyrimidin-4-yloxy)-ethylamine] is lower in IC50: 10 to 40 µM for the first, 1 to 10 µM for the second. The second is the more potent here.

First: c1cc(-c2nc(OC[C@@H]3CCCCN3)c3c4c(sc3n2)CCCC4)ccn1 [compound 179, 4-((S)-1-Piperidin-2-ylmethoxy)-2-pyridin-4-yl-5,6,7,8-tetrahydro-benzo[4,5]thieno[2,3-d]pyrimidine]
Second: N[C@H](COc1nc(-c2ccncc2)nc2sc3c(c12)CCCC3)CC1CCCCC1 [compound 157, (S)-2-Cyclohexyl-1-(2-pyridin-4-yl-5,6,7,8-tetrahydro-benzo[4,5]thieno[2,3-d]pyrimidin-4-yloxymethyl)-ethylamine]
The IC50 of the first is higher: 10 to 40 µM for the first, 1 to 10 µM for the second. The second is the more potent here.

`c1cncc(CN2CCN(c3nc(-c4ccncc4)nc4sc5c(c34)CCCC5)CC2)c1` [compound 130, 2-Pyridin-4-yl-4-(4-pyridin-3-ylmethyl-piperazin-1-yl)-5,6,7,8-tetrahydro-benzo[4,5]thieno[2,3-d]pyrimidine] and `Oc1cccc(CN2CCN(c3nc(-c4ccncc4)nc4sc5c(c34)CCCC5)CC2)c1` [compound 126, 3-[4-(2-Pyridin-4-yl-5,6,7,8-tetrahydro-benzo[4,5]thieno[2,3-d]pyrimidin-4-yl)-piperazin-1-ylmethyl]-phenol] fall in the same range of IC50: 10 to 40 µM for the first, 10 to 40 µM for the second.

`C[C@@H](N)CNc1nc(-c2ccncc2)nc2sc3c(c12)CCCCC3` [compound 89, (R)-N*1*-(2-Pyridin-4-yl-6,7,8,9-tetrahydro-5H-10-thia-1,3-diaza-benzo[a]azulen-4-yl)-propane-1,2-diamine] and `C[C@H](N)CNc1nc(-c2ccncc2)nc2sc3c(c12)CCCCC3` [compound 88, (S)-N*1*-(2-Pyridin-4-yl-6,7,8,9-tetrahydro-5H-10-thia-1,3-diaza-benzo[a]azulen-4-yl)-propane-1,2-diamine] fall in the same range of IC50: 0.1 to 1 µM for the first, 0.1 to 1 µM for the second.

`CNCCNc1nc(-c2ccncc2)nc2sc3c(c12)CCCC3` [compound 13, N-Methyl-N′-(2-pyridin-4-yl-5,6,7,8-tetrahydro-benzo[4,5]thieno[2,3-d]pyrimidin-4-yl)-ethane-1,2-diamine] and `NCCNc1nc(-c2ccncc2)nc2sc3c(c12)CCCCC3` [compound 84, N*1*-(2-pyridin-4-yl-6,7,8,9-tetrahydro-5H-10-thia-1,3-diaza-benzo[a]azulen-4-yl)-ethane-1,2-diamine] fall in the same range of IC50: 0.1 to 1 µM for the first, 0.1 to 1 µM for the second.

`COc1ccc(C[C@H](N)COc2nc(-c3ccncc3)nc3sc4c(c23)CCCC4)cc1` [compound 159, (S)-1-(4-methoxy-benzyl)-2-(2-pyridin-4-yl-5,6,7,8-tetrahydro-benzo[4,5]thieno [2,3-d]pyrimidin-4-yloxy)-ethylamine] and `CC[C@@H](N)COc1nc(-c2ccncc2)nc2sc3c(c12)CCCC3` [compound 149, (R)-1-(2-Pyridin-4-yl-5,6,7,8-tetrahydro-benzo[4,5]thieno[2,3-d]pyrimidin-4-yloxymethyl)-propylamine] fall in the same range of IC50: 1 to 10 µM for the first, 1 to 10 µM for the second.

`Cc1n[nH]c(C)c1-c1nc(N2CCCNCC2)c2c3c(sc2n1)CCCC3` [compound 191, 4-[1,4]Diazepan-1-yl-2-(3,5-dimethyl-1H-pyrazol-4-yl)-5,6,7,8-tetrahydro-benzo[4,5]thieno[2,3-d]pyrimidine] and `Cc1n[nH]c(C)c1-c1nc(NCCN)c2c3c(sc2n1)CCCC3` [compound 182, N*1*-[2-(3,5-Dimethyl-1H-pyrazol-4-yl)-5,6,7,8-tetrahydro-benzo[4,5]thieno[2,3-d]pyrimidin-4-yl]-ethane-1,2-diamine] fall in the same range of IC50: 0.1 to 1 µM for the first, 0.1 to 1 µM for the second.

Compared with `CC1CCc2c(sc3nc(-c4ccncc4)nc(NC[C@@H](N)Cc4ccccc4)c23)C1` (stereo partly drawn) [compound 69, (S)-N*1*-(7-Methyl-2-pyridin-4-yl-5,6,7,8-tetrahydro-benzo[4,5]thieno[2,3-d]pyrimidin-4-yl)-3-phenyl-propane-1,2-diamine], `CC1CCc2c(sc3nc(-c4ccncc4)nc(NC[C@@H](C)N)c23)C1` (stereo partly drawn) [compound 23, (R)-N*1*-(7-Methyl-2-pyridin-4-yl-5,6,7,8-tetrahydro-benzo[4,5]thieno[2,3-d]pyrimidin-4-yl)-propane-1,2-diamine] is higher in IC50: 0.1 to 1 µM for the first, 1 to 10 µM for the second.

First: C[C@@H](N)CNc1nc(-c2ccncc2)nc2sc3c(c12)CCCCCC3 [compound 26, (R)-N*1*-(2-Pyridin-4-yl-5,6,7,8,9, 10-hexahydro-11-thia-1,3-diaza-cycloocta[a]inden-4-yl)-propane-1,2-diamine]
Second: C[C@H](N)CNc1nc(-c2cn[nH]c2)nc2sc3c(c12)CCCC3 [compound 187, (S)-N*1*-[2-(1H-Pyrazol-4-yl)-5,6,7,8-tetrahydro-benzo[4,5]thieno[2,3-d]pyrimidin-4-yl]-propane-1,2-diamine]
The IC50 of the first is higher: 1 to 10 µM for the first, 0.1 to 1 µM for the second.

First: CC(C)Cc1csc2nc(-c3ccncc3)nc(NC[C@@H](C)N)c12 [compound 30, (R)-N*1*-(5-Isobutyl-2-pyridin-4-yl-thieno[2,3-d]pyrimidin-4-yl)-propane-1,2-diamine]
Second: CN(CCN)c1nc(-c2ccncc2)nc2sc3c(c12)CCCC3 [compound 15, N*1*-Methyl-N*1*-(2-pyridin-4-yl-5,6,7,8-tetrahydro-benzo[4,5]thieno[2,3-d]pyrimidin-4-yl)-ethane-1,2-diamine]
The IC50 of the first is higher: 1 to 10 µM for the first, 0.1 to 1 µM for the second. The second is the more potent here.
